Where “and” joins values, the source holds several entries; their conditions need not be identical. Equal entries are not always repeated.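 Five concentrations, 48 hours, 96-well plates. At the GI50, growth is halved. TGI denotes the concentration required for complete inhibition of growth.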
How the values were obtained:
Assay in all cases: inhibition of tumour cell growth, NCI panel, 48 h
[1] = test system: MDA-MB-231 breast
[2] = test system: K-562 leukemia
[3] = test system: LOX IMVI melanoma
[4] = test system: NCI-H460 lung
[5] = test system: MCF7 breast
[6] = test system: MOLT-4 leukemia
[7] = test system: KM12 colon
[8] = test system: COLO 205 colon
[9] = test system: NCI-H226 lung
[10] = test system: OVCAR-3 ovarian
[11] = test system: SW-620 colon
[12] = test system: EKVX NSCLC
[13] = test system: HCC-2998 colon
[14] = test system: NCI/ADR-RES ovarian
[15] = test system: SK-MEL-5 melanoma
[16] = test system: HOP-62 NSCLC
[17] = test system: U251 CNS
[18] = test system: SF-539 CNS
[19] = test system: MALME-3M melanoma
[20] = test system: A498 renal
[21] = test system: CAKI-1 renal
[22] = test system: HCT-116 colon
[23] = test system: 786-0 renal
[24] = test system: RPMI-8226 leukemia
[25] = test system: SNB-19 CNS
[26] = test system: SR leukemia
[27] = test system: NCI-H23 lung
[28] = test system: SF-268 CNS
[29] = test system: T-47D breast
[30] = test system: HCT-15 colon
[31] = test system: UO-31 renal
[32] = test system: MDA-MB-435
[33] = test system: A549 NSCLC
[34] = test system: SNB-75 CNS
[35] = test system: SK-OV-3 ovarian
[36] = test system: M14 melanoma
[37] = test system: HOP-92 NSCLC
[38] = test system: SN12C renal
[39] = test system: UACC-62 melanoma
[40] = test system: OVCAR-8 ovarian
[41] = test system: RXF 393 renal
[42] = test system: OVCAR-4 ovarian
[43] = test system: DU-145 prostate
[44] = test system: ACHN renal
[45] = test system: IGROV1 ovarian
[46] = test system: SK-MEL-28 melanoma
[47] = test system: UACC-257 melanoma
[48] = test system: SF-295 CNS
[49] = test system: PC-3 prostate
[50] = test system: HS 578T breast
[51] = test system: OVCAR-5 ovarian
[52] = test system: CCRF-CEM leukemia
[53] = test system: HT29 colon
[54] = test system: TK-10 renal
[55] = test system: BT-549 breast
[56] = test system: NCI-H522 lung

With `Cc1c(C)[n+](=O)c(C)c(C)n1[O-]` the GI50 [1] was > 100 µM, the TGI [1] was > 100 µM and the GI50 [2] was > 100 µM. For the same compound, the TGI [2] was > 100 µM, the GI50 [3] was > 100 µM and the TGI [3] was > 100 µM. The GI50 [4] was > 100 µM, the TGI [4] was > 100 µM and the GI50 [5] was > 100 µM. For the same compound, the TGI [5] was > 100 µM, the GI50 [6] was > 100 µM and the TGI [6] was > 100 µM. For the same compound, the GI50 [7] was > 100 µM, the TGI [7] was > 100 µM and the GI50 [8] was > 100 µM. The TGI [8] was > 100 µM, the GI50 [9] was > 100 µM and the TGI [9] was > 100 µM. For the same compound, the GI50 [10] was > 100 µM, the TGI [10] was > 100 µM and the GI50 [11] was > 100 µM. The TGI [11] was > 100 µM, the GI50 [12] was > 100 µM and the TGI [12] was > 100 µM. For the same compound, the GI50 [13] was > 100 µM, the TGI [13] was > 100 µM and the GI50 [14] was > 100 µM. The TGI [14] was > 100 µM, the GI50 [15] was > 100 µM and the TGI [15] was > 100 µM. The GI50 [16] was > 100 µM, the TGI [16] was > 100 µM and the GI50 [17] was > 100 µM. For the same compound, the TGI [17] was > 100 µM, the GI50 [18] was > 100 µM and the TGI [18] was > 100 µM. The GI50 [19] was > 100 µM, the TGI [19] was > 100 µM and the GI50 [20] was > 100 µM. The TGI [20] was > 100 µM, the GI50 [21] was > 100 µM and the TGI [21] was > 100 µM. The GI50 [22] was > 100 µM, the TGI [22] was > 100 µM and the GI50 [23] was > 100 µM. For the same compound, the TGI [23] was > 100 µM, the GI50 [24] was > 100 µM and the TGI [24] was > 100 µM. The GI50 [25] was > 100 µM, the TGI [25] was > 100 µM and the GI50 [26] was > 100 µM. The TGI [26] was > 100 µM, the GI50 [27] was > 100 µM and the TGI [27] was > 100 µM. The GI50 [28] was > 100 µM, the TGI [28] was > 100 µM and the GI50 [29] was > 100 µM. For the same compound, the TGI [29] was > 100 µM, the GI50 [30] was > 100 µM and the TGI [30] was > 100 µM. The GI50 [31] was > 100 µM, the TGI [31] was > 100 µM and the GI50 [32] was > 100 µM. For the same compound, the TGI [32] was > 100 µM, the GI50 [33] was > 100 µM and the TGI [33] was > 100 µM. For the same compound, the GI50 [34] was 79.8 µM, the TGI [34] was > 100 µM and the GI50 [35] was > 100 µM. For the same compound, the TGI [35] was > 100 µM, the GI50 [36] was > 100 µM and the TGI [36] was > 100 µM. For the same compound, the GI50 [37] was 2.91 µM, the TGI [37] was > 100 µM and the GI50 [38] was > 100 µM. The TGI [38] was > 100 µM, the GI50 [39] was > 100 µM and the TGI [39] was > 100 µM. The GI50 [40] was > 100 µM, the TGI [40] was > 100 µM and the GI50 [41] was > 100 µM. The TGI [41] was > 100 µM, the GI50 [42] was > 100 µM and the TGI [42] was > 100 µM. For the same compound, the GI50 [43] was > 100 µM, the TGI [43] was > 100 µM and the GI50 [44] was > 100 µM. The TGI [44] was > 100 µM, the GI50 [45] was > 100 µM and the TGI [45] was > 100 µM. For the same compound, the GI50 [46] was > 100 µM, the TGI [46] was > 100 µM and the GI50 [47] was > 100 µM. For the same compound, the TGI [47] was > 100 µM, the GI50 [48] was > 100 µM and the TGI [48] was > 100 µM. The GI50 [49] was > 100 µM, the TGI [49] was > 100 µM and the GI50 [50] was > 100 µM. For the same compound, the TGI [50] was > 100 µM, the GI50 [51] was > 100 µM and the TGI [51] was > 100 µM. The GI50 [52] was > 100 µM and the TGI [52] was > 100 µM.
For `Cc1ccnc2[nH]c(-c3ccccc3)cc(=O)c12`, the GI50 [1] was 0.134 µM, the TGI [4] was > 100 µM and the TGI [53] was 0.0259 µM. For the same compound, the TGI [6] was > 100 µM, the TGI [7] was 12.8 µM and the GI50 [9] was 1.46 µM. The TGI [9] was 5.96 µM and 32.5 µM, the TGI [11] was > 100 µM and the GI50 [12] was > 100 µM. The TGI [12] was > 100 µM, the TGI [17] was > 100 µM and the TGI [19] was > 100 µM. The TGI [22] was 10.6 µM, the TGI [23] was > 100 µM and the GI50 [24] was 0.0278 µM. It also gave a GI50 [27] of 0.0692 µM, a TGI [54] of 58.9 µM and a GI50 [28] of 0.0171 µM. The TGI [28] was > 100 µM, the TGI [29] was > 100 µM and the TGI [33] was > 100 µM. For the same compound, the TGI [37] was 93.7 µM, the GI50 [38] was 0.0399 µM and the GI50 [40] was 0.0193 µM. The TGI [40] was > 100 µM, the TGI [41] was 0.0184 µM and the TGI [55] was > 100 µM. For the same compound, the TGI [42] was > 100 µM, the TGI [43] was > 100 µM and the TGI [44] was 63.3 µM. For the same compound, the GI50 [45] was 1.84 µM, the TGI [45] was > 100 µM and the TGI [46] was > 100 µM. The TGI [49] was > 100 µM, the TGI [56] was 0.192 µM and the TGI [50] was > 100 µM. It also gave a GI50 [51] of 20.9 µM and a TGI [51] of 51.2 µM.

— PubChem BioAssay (NCI)
